According to patent publication US10420718B2, “Effervescent compositions containing co-crystals of the acid part” (University of Bradford, priority 2014, dated 2019):

Legend:
[1] = Stability of co-crystals stored at 98% relative humidity, checked by XRD; assay type: physicochemical; settings: 98% RH
Description: The co-crystals were stored at 98% relative humidity and the stability was evaluated after 24 hours using powder X-ray diffraction. […] This stability of the co-crystal in the presence of high amounts of atmospheric moisture is responsible for maintenance of the effervescent action. The stability of the co-crystals to moisture was investigated by storing the co-crystals at 98% relative humidity and the following results were observed. The co-crystal samples were analysed with XRD to check whether the co-crystal retained its structure or became dissociated or degraded over time on exposure to the atmosphere. Stability of Co-Crystals at 98% RH

[2] = Dynamic vapour sorption (DVS) study; assay type: physicochemical; settings: for Moisture sorption (weight gain) at 90% relative humidity: DVS, 90% RH
Description: UK. The sample weights were taken in the range of 30-50 mg and below experimental parameters were kept constant for all samples.

| SMILES | XRD results (co-crystal stability) ([1]; Day 14) | XRD results (co-crystal stability) ([1]; Day 18) | Behaviour in DVS study (in words) ([2]; DVS 0-90% RH, 25 C) | Moisture sorption (weight gain) at 90% relative humidity ([2]; 25 C) | Change In Mass (%) ([2]; Target Relative Humidity 0.0%) | Change In Mass (%) ([2]; Target Relative Humidity 10.0%) | Change In Mass (%) ([2]; Target Relative Humidity 20.0%) | Change In Mass (%) ([2]; Target Relative Humidity 30.0%) | Change In Mass (%) ([2]; Target Relative Humidity 40.0%) | Change In Mass (%) ([2]; Target Relative Humidity 50.0%) | Change In Mass (%) ([2]; Target Relative Humidity 60.0%) | Change In Mass (%) ([2]; Target Relative Humidity 70.0%) | Change In Mass (%) ([2]; Target Relative Humidity 80.0%) | Change In Mass (%) ([2]; Target Relative Humidity 90.0%) | Weight gain due to moisture sorption (total) ([2]; DVS 0-90% RH, 25 C) |
| --- | --- | --- | --- | --- | --- | --- | --- | --- | --- | --- | --- | --- | --- | --- | --- |
| NC(=O)c1cccnc1.NC(=O)c1cccnc1.O=C(O)CC(O)(CC(=O)O)C(=O)O [Citric acid-nicotinamide, 1:2, citric acid-nicotinamide 1:2 co-crystal] | Stable | Stable | non-hygroscopic | 0.23% |  |  |  |  |  |  |  |  |  |  |  |
| NC(=O)c1cccnc1.NC(=O)c1cccnc1.O=C(O)CC(O)(CC(=O)O)C(=O)O [Citric acid:nicotinamide, 1:2 co-crystal] |  |  |  |  | 0.0002% | 0.0044% | 0.0070% | 0.0108% | 0.0145% | 0.0203% | 0.0318% | 0.0561% | 0.0976% | 0.2319% |  |
| O=C(O)CC(O)(CC(=O)O)C(=O)O [citric acid] |  |  | undergoes liquefaction |  | 0.00% | 0.00% | 0.00% | 0.00% | 0.00% | 0.00% | 0.01% | 0.02% | 4.65% | 31.21% | 31% |
| O=C([O-])O.[Na+] [sodium bicarbonate] |  |  |  | 0.32% | −0.0001% | 0.0027% | 0.0042% | 0.0056% | 0.0074% | 0.0103% | 0.0143% | 0.0240% | 0.0746% | 0.3236% |  |
